Measurements taken from US9561201B2, “Therapeutic compounds” (Fibrotech Therapeutics Pty Ltd, priority 2006, dated 2017).

How the values were obtained:
[1] = test system: neonatal SD rat cardiac fibroblasts; assay: Angiotensin II-stimulated fibrosis (proline incorporation) in neonatal cardiac fibroblasts (Example 4); format: cell-based
Procedure: (§1) Matrix synthesis may be stimulated by both angiotensin II or transforming growth factor beta (TGF-β).
(§2) Neonatal SD rat cardiac fibroblasts (NCFs) were isolated from one-day-old pups with enzymatic digestion. NCFs were purified by percoll gradient and seeded with DMEM in the present of 1% antibiotic/antimycotic (AB/AM) and 10% fatal bovine serum (FBS). NCFs were then subcultured when they are about 80% confluence. The second passage of NCFs was used for the assays.
(§3) NCFs were seeded at 25,000 cells/well in 12-well plates and incubated at 37° C. and 5% CO2 overnight in DMEM with 1% AB/AM and 10% FBS. Cells were then washed with DMEM and then the media replaced with DMEM/F12 with 1% AB/AM, 0.5% Bovine Serum Albumin (BSA) and Vitamin C, before being incubated at 37° C. and 5% CO2 for 24 hours.
(§4) The effect of FT011 on TGF-β- or angiotensin II-stimulated fibrosis in the neonatal SD rat cardiac fibroblasts was investigated.

[2] = Pilot study (toxicity assessment), 2 weeks oral gavage; format: in vivo, Sprague-Dawley (SD) rats; settings: for ALT / Body weight / Plasma Creatinine / Plasma Urate: 2 weeks
Procedure: A total of twenty male Sprague-Dawley (SD) rats weighing 200-250 g were randomised to either FT011 (Fibrotech Therapeutics Pty Ltd, Melbourne, Australia) or Tranilast (Pharm Chemical, Shanghai Lansheng Corporation, China) at the dose of 50 mg, 100 mg, 200 mg and 400 mg/kg/day by gavage twice daily (n=2-3 per group). A control group of animals were gavaged with vehicle (1% carboxy methyl cellulose). The study was conducted for 2 weeks. Animals were bled daily at one, four, and eight hours after oral gavage to measure the plasma concentration. Serum was also collected to assess renal and liver function at the end of the study (plasma creatine and urate, ALT and bilirubin). Rats were individually housed in metabolic cages at the end of the study, habituated for 2 to 3 hours, and urine collected over 24 hours. Animals continued to have free access to tap water and standard laboratory chow during this period. The biochemistry tests performed at the department of pathology, St Vincent's hospital. Major organs including lung, heart, liver, spleen and kidney were harvested and immersed fix with 10% neutral buffered formalin and then embedded paraffin for subsequent light microscope examination.

rat mesangial cell line = assay: TGF-β stimulated 3H-proline incorporation in mesangial cells (Example 5); format: cell-based; settings: for Mesangial Cell Assay TGF-β % reduction of TGF-β stimulation_proline inc.: 5 ng/mL TGF-β1, 44 h
[3] = test system: mesangial cell line (1097); assay: TGF-β induced 3H-proline incorporation in cultured rat mesangial cells (Example 2); format: cell-based, Sprague-Dawley rats; settings: renal mesangial cells, from 30 to 100 μM
Procedure: The anti-fibrotic effects of 3-methoxy-4-propargyloxybenzaldehyde (FT011) in a renal cell line were tested by measuring proline incorporation after transforming growth factor-β stimulation.
A well-characterized cloned mesangial cell line (1097) isolated from Sprague-Dawley rats was used between passages 30 and 40. Cells were cultured in Dulbecco's Modified Eagle's (DME) medium (Invitrogen, Grand Island, N.Y.) with heat-inactivated fetal bovine serum (FBS), 100 u/mL penicillin and 100 ug/mL streptomycin in a humidified 5% CO2 atmosphere at 37° C.
To compare the effects of tranilast and FT011 on collagen production in vitro, incorporation of tritiated proline was used. Mesangial cells were plated at low density into 24-well culture plates in DME/5% FBS and allowed to adhere overnight. The subconfluent cells were starved overnight in DME/0.5% FBS and […] L-ascorbic acid (Sigma-Aldrich). Tranilast or FT011 was then added to the wells, followed 4 hours later by L-[2,3,4,5-^3H]-proline, 0.5 μCi/well (Amersham) and TGF-β1, 5 ng/ml (R & D systems). Mesangial cells were harvested 48 hours post-stimulation, washed three times with ice cold PBS, and incubated with 10% trichloroacetic acid (TCA) for 30 minutes on ice, followed by a wash in ice cold 10% TCA. Cells were then solubilised in […] 1M NaOH. […]

[4] = test system: neonatal SD rat cardiac fibroblasts; assay: TGF-β-stimulated fibrosis (proline incorporation) in neonatal cardiac fibroblasts (Example 4); format: cell-based
Procedure: as §1, §2, §3, §4

Mesangial cells = assay: PDGF stimulated matrix synthesis (proline incorporation) in mesangial cells (Example 3); format: cell-based, rat
Text: Matrix synthesis may be stimulated by platelet derived growth factor (PDGF).

Compound: C#CCOc1ccc(/C=C/C(=O)Nc2ccccc2C(=O)O)cc1OC [Analogue 11]
- angiotensin II-stimulated fibrosis (proline incorporation) [1]: inhibited
- ALT ([2]; 50 mg/kg/day gavage): 41 ± 1
- Body weight ([2]; 50 mg/kg/day gavage): 313 ± 24 Gram
- Plasma Creatinine ([2]; 50 mg/kg/day gavage): 38 ± 2 µmol/L
- Plasma Urate ([2]; 50 mg/kg/day gavage): <0.09 mmol/L
- ALT ([2]; 100 mg/kg/day gavage): 44 ± 2
- Body weight ([2]; 100 mg/kg/day gavage): 308 ± 22 Gram
- Plasma Creatinine ([2]; 100 mg/kg/day gavage): 39 ± 0.5 µmol/L
- Plasma Urate ([2]; 100 mg/kg/day gavage): <0.09 mmol/L
- ALT ([2]; 200 mg/kg/day gavage): 36 ± 0.5
- Body weight ([2]; 200 mg/kg/day gavage): 301 ± 8 Gram
- Plasma Creatinine ([2]; 200 mg/kg/day gavage): 37 ± 0.6 µmol/L
- Plasma Urate ([2]; 200 mg/kg/day gavage): <0.09 mmol/L
- ALT ([2]; 400 mg/kg/day gavage): 32 ± 4.4
- Body weight ([2]; 400 mg/kg/day gavage): 264 ± 29 Gram
- Plasma Creatinine ([2]; 400 mg/kg/day gavage): 36 ± 3.9 µmol/L
- Plasma Urate ([2]; 400 mg/kg/day gavage): <0.09 mmol/L
- level of FT011 measured in plasma ([2]; following gavage, 50-400 mg/kg/day): increased in a dose dependent manner
- level of FT011 measured in urine ([2]; rats treated with FT011, 24 h urine): significant level
- Mesangial Cell Assay TGF-β % reduction of TGF-β stimulation_proline inc. (rat mesangial cell line; @ 3 μM): 15% @ 3
- Mesangial Cell Assay TGF-β % reduction of TGF-β stimulation_proline inc. (rat mesangial cell line; @ 10 μM): 20-50% @ 10
- Mesangial Cell Assay TGF-β % reduction of TGF-β stimulation_proline inc. (rat mesangial cell line; @ 30 μM): 50-75% @ 30
- Mesangial Cell Assay TGF-β % reduction of TGF-β stimulation_proline inc. (rat mesangial cell line; @ 100 μM): 60-100% @ 100
- Collagen synthesis (rat mesangial cell line; inhibition ranked against tranilast (T) or FT11): >T
- proline incorporation after TGF-β stimulation [3]: significantly reduce
- TGF-β-stimulated fibrosis (proline incorporation) [4]: inhibited
- PDGF-stimulated matrix synthesis (proline incorporation) (Mesangial cells; 30 and 100 μM): inhibits
- potency at reducing proline incorporation compared with tranilast (Mesangial cells; PDGF stimulation, 30 μM): more potent
